Here are results for four molecules from patent publication US4835160A, “Derivatives of pyridoindole, having anti-tumor properties” (Sanofi, priority 1986, dated 1989).

Series [1] deals with leukemia tumour line L 1210. The series can be described thus: In vitro cytotoxic activity on leukemia tumour line L 1210. It is filed as cell-based. Particulars: Mus musculus, L1210, 48 h, L 1210, 48 hours contact, 37° C.; read-out: I D 50 (concentration which inhibits the proliferation of the cells by 50%). As for the experimental part:
(1) In vitro: ([…] et al., Chem. Biol. Interaction, 1979, 25, 45-58). The cytotoxic activity of the compounds of the invention has been evaluated by in vitro tests. These tests consist of adding increasing concentrations of the compound under test to a cellular culture of the leukemia tumour line L 1210 in an exponential phase of growth. The cellules are incubated at 37° C. in a CO2 incubator and counted every 24 hours. The calculation of the I D 50 (concentration of the product, expressed in 1^-1 micromole, which inhibits the proliferation of the cells by 50%) is made after 48 hours contact.

A further series has as its system melanoma B 16. The series can be described thus: Test for melanoma B 16. It is filed as in vivo, BDF1 hybrid mice. As to conditions: D1-D9; for Number of survivors: day D60; for T/C %: survival time. The method, then:
(§1) The antitumour activity was tested in vivo on various tumours inoculated in various ways according to the following general protocol:
(§2) All the male or female mice are inoculated on day D0 with a known quantity of viable tumour cells for ascitic tumours or with a known tumour fragment for solid tumours.
(§3) They are then distributed into various groups. Each group, corresponding to the animals treated by the product under test, is made up of 10 mice. The product under test is dissolved in distilled water and it is administered n times (Dx-Dy), n, y, and x varying according to the protocol chosen, at the rate of 0.1 ml of solution per 10 g by weight of mice treated and at specific doses for each protocol.
(§4) The "negative control" group, corresponding to the animals which are not treated by the product, contains 2√N animals, N being equal to or greater than the total number of mice treated by the product in the same experiment.
(§5) Finally, the tests can also be carried out at the same time as the study of a group called "positive control", of ten animals, which is treated by a molecule, known for its antitumour activity and which can vary according to the protocol chosen, in the same conditions as the groups treated by the product under test.
(§6) The antitumour activity is evaluated, in the case of ascitic tumours, by considering the increase in the survival time of the animals treated in comparison to that of the animals in the "negative control" group, according to the formula: [formula]
(§7) Also, a product is considered as toxic at the dose studied when this T/C value is equal to or less than 85%. In addition, a product is also considered as toxic at the dose studied when the weight variation, expressed in grams and calculated by the formula: […]
(d) Test for melanoma B 16 (GERAN et al., Cancer Chemother., 1972, 2, 07-75).
The tests are carried out with BDF1 hybrid mice inoculated by intraperitoneal route with 0.5 ml of a homogenate of melanoma B 16 made up from 1 g of tumour in 10 ml of physiological serum. The compound under test is administered for 9 days (D1-D9) by intraperitoneal route. The positive control for the test is Cis-Platine administered in the same conditions. The number of surviving animals is evaluated on day D60.

Another series relates to leukemia P 388. The series can be described thus: Test of leukemia P 388; IP/IP, D1-5. The format is in vivo, CDF1 hybrid mice. Particulars: D1-D5; for Number of survivors: day D30; for T/C %: survival time. As for the experimental part:
(2) In vivo: (GERAN et al., Cancer Chemother., 1972, 2, 07-57):
as §1, §2, §3, §4, §5, §6
The criterion for activity varies according to the protocol.
as §7
"Average weight of the group measured on day 5--Average weight of the same group measured on day 1"
is equal to or less than 4 g.
(a) Test of lelukemia P 388; IP/IP, D1-5 (GERAN et al., Cancer Chemother., 1972, 2, 07-57).
The tests are carried out with CDF1 hybrid mice inoculated by intraperitoneal route with 10^6 leukemia cells from the P 388 line. The compound under test is administered for 5 successive days (D1-D5) by intraperitoneal route. The positive control for the test is 5-fluorouracile which is administered in the same conditions. The number of surviving animals is evaluated on day D30.

In the case of `Cc1cnc(NCCCN(C)C)c2c1[nH]c1ccc(O)cc12` [Derivative No. 9, 1-(3-dimethylaminopropylamino)-8-hydroxy-4-methyl-5H-pyrido[4,3-b]indole], the IC50 in series [1] turned out to be 90 nM. For the same molecule, in the series on melanoma B 16 (0.625 mg/kg IP), the “Median day of survival” value stood at 28 days, the “Variation by weight (g)” value is “+1.3 g”, the Number of survivors is 0/10 and the T/C % turned out to be 118%. In the series on melanoma B 16 (1.25 mg/kg IP), the “Median day of survival” value was found to be 33.0 days, the “Variation by weight (g)” value is “+0.1 g”, the Number of survivors is 1/10 and the T/C % stood at 139%. Further, in the series on melanoma B 16 (2.5 mg/kg IP), the “Median day of survival” value turned out to be 31.25 days, the “Variation by weight (g)” value is given as “+0.8 g”, the Number of survivors is reported as 1/10 and the T/C % is 131%.
For `COc1ccc2c(c1)c1c(NCCCN(C)C)ncc(C)c1n2C.Cl.Cl` [Derivative No. 13, 4,5-dimethyl-1-(3-dimethylaminopropylamino)-8-methoxy-5H-pyrido[4,3-b]indole dihydrochloride], the IC50 in series [1] amounted to 130 nM. Moreover, in the series with leukemia P 388 (5 mg/kg IP), the “Median day of survival” value is 14.1 days, the “Variation by weight (g)” value is “+1.0 g”, the Number of survivors is 0/10 and the T/C % amounted to 134%. For the same molecule, in the series on leukemia P 388 (10 mg/kg IP), the “Median day of survival” value turned out to be 16.8 days, the “Variation by weight (g)” value was “+1.2 g”, the Number of survivors is 0/10 and the T/C % turned out to be 160%. In addition, in the series on leukemia P 388 (20 mg/kg IP), the “Median day of survival” value stood at 15.8 days, the “Variation by weight (g)” value is “+0.4 g”, the Number of survivors is 0/10 and the T/C % amounted to 150%. In the series on leukemia P 388 (40 mg/kg IP), the “Median day of survival” value came out at 8.4 days, the “Variation by weight” value is -2.5 g, the Number of survivors was 0/10 and the T/C % amounted to 80%.
Regarding `Cc1cnc(NCCCN(C)C)c2c3ccccc3n(C)c12.Cl.Cl` [Derivative No. 17, 4,5-dimethyl 1-(3-dimethylaminopropylamino)-5H-pyrido[4,3-b]indole dihydrochloride], the IC50 in series [1] came to 350 nM. Also, in the series with leukemia P 388 (24 mg/kg IP), the “Median day of survival” value amounted to 15.4 days, the “Variation by weight” value worked out at 0.0 g, the Number of survivors is 0/10 and the T/C % was 131%.
With `CCN(CC)CCNc1ncc(C)c2c1c1cc(O)ccc1n2C.Cl.Cl` [Derivative No. 19, 1-(2-diethylaminoethylamino)-4,5-dimethyl-8-hydroxy-5H-pyrido[4,3-b]indole dihydrochloride], the IC50 in series [1] worked out at 150 nM. In addition, in the series with leukemia P 388 (5 mg/kg IP), the “Median day of survival” value turned out to be 15.3 days, the “Variation by weight (g)” value was “+0.5 g”, the Number of survivors is given as 0/6 and the T/C % is listed as 142%. Further, in the series on leukemia P 388 (10 mg/kg IP), the “Median day of survival” value was found to be 17.0 days, the “Variation by weight” value is given as -0.2 g, the Number of survivors was 0/6 and the T/C % is recorded as 153%. Further, in the series with leukemia P 388 (20 mg/kg IP), the “Median day of survival” value was 20.3 days, the “Variation by weight (g)” value is reported as “+0.3 g”, the Number of survivors is 0/6 and the T/C % was determined as 182%. In the series on leukemia P 388 (40 mg/kg IP), the “Median day of survival” value stood at 15.3 days, the “Variation by weight” value was -2.1 g, the Number of survivors was 0/6 and the T/C % came to 137%.
